{"source": "paper PMC12028158", "about": "“Synthesis and In Vitro Evaluation of the Anticancer Effect of Novel Phosphonium Vindoline Derivatives” (International Journal of Molecular Sciences, 2025)", "format_in_all_cases": "cell-based", "key": {"[1]": {"system": "60 human tumor cell lines (NCI60)", "assay": "NCI60 five-dose screen, overall mean"}, "[2]": {"system": "SK-MEL-2", "assay": "NCI60 one-dose screen", "details": "Homo sapiens, SK-MEL-2, read-out: Growth percent"}, "[3]": {"system": "RPMI-8226", "assay": "NCI60 five-dose screen", "details": "Homo sapiens, RPMI-8226"}, "[4]": {"system": "SK-OV-3", "assay": "NCI60 one-dose screen", "details": "Homo sapiens, SK-OV-3, read-out: Growth percent"}, "[5]": {"system": "RXF 393", "assay": "NCI60 one-dose screen", "details": "Homo sapiens, RXF 393, read-out: Growth percent"}, "[6]": {"system": "A549/ATCC", "assay": "NCI60 one-dose screen", "details": "Homo sapiens, A549, read-out: Growth percent"}, "[7]": {"system": "HCC-2998", "assay": "NCI60 one-dose screen", "details": "Homo sapiens, HCC 2998, read-out: Growth percent"}, "[8]": {"system": "PC-3", "assay": "NCI60 five-dose screen", "details": "Homo sapiens, PC-3"}, "[9]": {"system": "MALME-3M", "assay": "NCI60 five-dose screen", "details": "Homo sapiens, Malme-3M"}, "[10]": {"system": "HL-60(TB)", "assay": "NCI60 one-dose screen", "details": "Homo sapiens, HL-60, read-out: Growth percent"}, "[11]": {"system": "Prostate Cancer panel", "assay": "NCI60 five-dose screen, panel mean", "details": "Homo sapiens, read-out: GI50 Mean"}, "[12]": {"system": "HCC-2998", "assay": "NCI60 five-dose screen", "details": "Homo sapiens, HCC 2998"}, "[13]": {"system": "SK-OV-3", "assay": "NCI60 five-dose screen", "details": "Homo sapiens, SK-OV-3"}, "[14]": {"system": "HOP-92", "assay": "NCI60 five-dose screen", "details": "Homo sapiens, HOP-92"}, "[15]": {"system": "NCI-H522", "assay": "NCI60 five-dose screen", "details": "Homo sapiens, NCI-H522"}, "[16]": {"system": "CCRF-CEM", "assay": "NCI60 one-dose screen", "details": "Homo sapiens, read-out: Growth percent"}, "[17]": {"system": "Melanoma panel", "assay": "NCI60 five-dose screen, panel mean", "details": "Homo sapiens, read-out: GI50 Mean"}, "[18]": {"system": "MDA-MB-435", "assay": "NCI60 one-dose screen", "details": "Homo sapiens, MDA-MB-435, read-out: Growth percent"}, "[19]": {"system": "K-562", "assay": "NCI60 one-dose screen", "details": "Homo sapiens, K562, read-out: Growth percent"}, "[20]": {"system": "PC-3", "assay": "NCI60 one-dose screen", "details": "Homo sapiens, PC-3, read-out: Growth percent"}, "[21]": {"system": "OVCAR-3", "assay": "NCI60 five-dose screen", "details": "Homo sapiens, OVCAR-3"}, "[22]": {"system": "LOX IMVI", "assay": "NCI60 one-dose screen", "details": "Homo sapiens, read-out: Growth percent"}, "[23]": {"system": "NCI-H23", "assay": "NCI60 five-dose screen", "details": "Homo sapiens, NCI-H23"}, "[24]": {"system": "MCF7", "assay": "NCI60 one-dose screen", "details": "Homo sapiens, MCF7, read-out: Growth percent"}, "[25]": {"system": "SR", "assay": "NCI60 five-dose screen", "details": "Homo sapiens"}, "[26]": {"system": "OVCAR-8", "assay": "NCI60 five-dose screen", "details": "Homo sapiens, OVCAR-8"}, "[27]": {"system": "SW-620", "assay": "NCI60 one-dose screen", "details": "Homo sapiens, SW-620, read-out: Growth percent"}, "[28]": {"system": "SF-539", "assay": "NCI60 five-dose screen", "details": "Homo sapiens, SF-539"}, "[29]": {"system": "OVCAR-3", "assay": "NCI60 one-dose screen", "details": "Homo sapiens, OVCAR-3, read-out: Growth percent"}, "[30]": {"system": "EKVX", "assay": "NCI60 one-dose screen", "details": "Homo sapiens, read-out: Growth percent"}, "[31]": {"system": "SNB-19", "assay": "NCI60 one-dose screen", "details": "Homo sapiens, SNB-19, read-out: Growth percent"}, "[32]": {"system": "SF-295", "assay": "NCI60 five-dose screen", "details": "Homo sapiens, SF-295"}, "[33]": {"system": "HT29", "assay": "NCI60 five-dose screen", "details": "Homo sapiens, HT-29"}, "[34]": {"system": "OVCAR-4", "assay": "NCI60 one-dose screen", "details": "Homo sapiens, OVCAR-4, read-out: Growth percent"}, "[35]": {"details": "read-out: GI50 Mean, mean over all 60 human cancer cell lines"}}, "note": "Like-named read-outs stand apart in the source and are kept apart here.", "data": [{"compound": "CC[C@]12C=CCN3CC[C@@]4(c5ccc(OC)cc5N(C)[C@H]4[C@@](O)(C(=O)OC)[C@@H]1OC(=O)CCCC[P+](C1CCCCC1)(C1CCCCC1)C1CCCCC1)[C@@H]32", "note": "[10d]", "values": [{"measurement": "GI50", "setting": "[1]; [35]", "result": 4.29, "unit": "µM"}, {"measurement": "activity at 10 µM", "setting": "[2]", "result": -88, "unit": "%"}, {"measurement": "GI50", "setting": "[3]", "result": 0.412, "unit": "µM"}, {"measurement": "activity at 10 µM", "setting": "[4]", "result": -22.2, "unit": "%"}, {"measurement": "activity at 10 µM", "setting": "[5]", "result": -73.8, "unit": "%"}, {"measurement": "activity at 10 µM", "setting": "[6]", "result": 11.7, "unit": "%"}, {"measurement": "activity at 10 µM", "setting": "[7]", "result": -87.8, "unit": "%"}, {"measurement": "GI50", "setting": "[8]", "result": 1.46, "unit": "µM"}, {"measurement": "GI50", "setting": "[9]", "result": 1.63, "unit": "µM"}, {"measurement": "activity at 10 µM", "setting": "[10]", "result": -36.7, "unit": "%"}, {"measurement": "GI50", "setting": "[11]", "result": 2.56, "unit": "µM"}, {"measurement": "GI50", "setting": "[12]", "result": 1.31, "unit": "µM"}, {"measurement": "GI50", "setting": "[13]", "result": 2.28, "unit": "µM"}, {"measurement": "GI50", "setting": "[14]", "result": 1.02, "unit": "µM"}, {"measurement": "GI50", "setting": "[15]", "result": 0.642, "unit": "µM"}, {"measurement": "activity at 10 µM", "setting": "[16]", "result": -60.2, "unit": "%"}, {"measurement": "GI50", "setting": "[17]", "result": 1.96, "unit": "µM"}, {"measurement": "activity at 10 µM", "setting": "[18]", "result": -90.5, "unit": "%"}, {"measurement": "activity at 10 µM", "setting": "[19]", "result": 7.48, "unit": "%"}, {"measurement": "activity at 10 µM", "setting": "[20]", "result": 3.69, "unit": "%"}, {"measurement": "GI50", "setting": "[21]", "result": 1.93, "unit": "µM"}, {"measurement": "activity at 10 µM", "setting": "[22]", "result": -96.1, "unit": "%"}, {"measurement": "GI50", "setting": "[23]", "result": 2.34, "unit": "µM"}, {"measurement": "activity at 10 µM", "setting": "[24]", "result": -64.2, "unit": "%"}, {"measurement": "GI50", "setting": "[25]", "result": 1.39, "unit": "µM"}, {"measurement": "GI50", "setting": "[26]", "result": 2.93, "unit": "µM"}, {"measurement": "activity at 10 µM", "setting": "[27]", "result": 2.08, "unit": "%"}, {"measurement": "GI50", "setting": "[28]", "result": 2.85, "unit": "µM"}, {"measurement": "activity at 10 µM", "setting": "[29]", "result": -60.3, "unit": "%"}, {"measurement": "activity at 10 µM", "setting": "[30]", "result": 13.2, "unit": "%"}, {"measurement": "activity at 10 µM", "setting": "[31]", "result": -71.1, "unit": "%"}, {"measurement": "GI50", "setting": "[32]", "result": 4.4, "unit": "µM"}, {"measurement": "GI50", "setting": "[33]", "result": 1.43, "unit": "µM"}, {"measurement": "activity at 10 µM", "setting": "[34]", "result": 12.4, "unit": "%"}]}, {"compound": "CC[C@]12C=CCN3CC[C@@]4(c5ccc(OC)cc5N(C)[C@H]4[C@@](O)(C(=O)OC)[C@@H]1OC(=O)CCCC[P+](c1ccc(OC)cc1)(c1ccc(OC)cc1)c1ccc(OC)cc1)[C@@H]32", "note": "[10b]", "values": [{"measurement": "GI50", "setting": "[1]; 60 cell, read-out: Mean GI50, mean over all 60 cell lines", "result": "< 3", "unit": "µM"}, {"measurement": "GI50", "setting": "[1]; [35]", "result": 2.2, "unit": "µM"}, {"measurement": "activity at 10 µM", "setting": "[2]", "result": -91.4, "unit": "%"}, {"measurement": "GI50", "setting": "[3]", "result": 0.299, "unit": "µM"}, {"measurement": "activity at 10 µM", "setting": "[4]", "result": -82.5, "unit": "%"}, {"measurement": "activity at 10 µM", "setting": "[5]", "result": -90.4, "unit": "%"}, {"measurement": "activity at 10 µM", "setting": "[6]", "result": -83.7, "unit": "%"}, {"measurement": "activity at 10 µM", "setting": "[7]", "result": -88.4, "unit": "%"}, {"measurement": "GI50", "setting": "[8]", "result": 0.562, "unit": "µM"}, {"measurement": "GI50", "setting": "[9]", "result": 1.13, "unit": "µM"}, {"measurement": "activity at 10 µM", "setting": "[10]", "result": -45.2, "unit": "%"}, {"measurement": "GI50", "setting": "[11]", "result": 8.28, "unit": "µM"}, {"measurement": "GI50", "setting": "[12]", "result": 0.617, "unit": "µM"}, {"measurement": "GI50", "setting": "[13]", "result": 1.4, "unit": "µM"}, {"measurement": "GI50", "setting": "[14]", "result": 0.52, "unit": "µM"}, {"measurement": "GI50", "setting": "[15]", "result": 0.341, "unit": "µM"}, {"measurement": "activity at 10 µM", "setting": "[16]", "result": -59.1, "unit": "%"}, {"measurement": "GI50", "setting": "[17]", "result": 0.98, "unit": "µM"}, {"measurement": "activity at 10 µM", "setting": "[18]", "result": -88.5, "unit": "%"}, {"measurement": "activity at 10 µM", "setting": "[19]", "result": 1.01, "unit": "%"}, {"measurement": "activity at 10 µM", "setting": "[20]", "result": -37.2, "unit": "%"}, {"measurement": "GI50", "setting": "[21]", "result": 0.634, "unit": "µM"}, {"measurement": "activity at 10 µM", "setting": "[22]", "result": -96.4, "unit": "%"}, {"measurement": "GI50", "setting": "[23]", "result": 1.19, "unit": "µM"}, {"measurement": "activity at 10 µM", "setting": "[24]", "result": -82.6, "unit": "%"}, {"measurement": "GI50", "setting": "[25]", "result": 0.428, "unit": "µM"}, {"measurement": "GI50", "setting": "[26]", "result": 1.99, "unit": "µM"}, {"measurement": "activity at 10 µM", "setting": "[27]", "result": -88.7, "unit": "%"}, {"measurement": "GI50", "setting": "[28]", "result": 1.52, "unit": "µM"}, {"measurement": "activity at 10 µM", "setting": "[29]", "result": -71.8, "unit": "%"}, {"measurement": "activity at 10 µM", "setting": "[30]", "result": -59.7, "unit": "%"}, {"measurement": "activity at 10 µM", "setting": "[31]", "result": -95.7, "unit": "%"}, {"measurement": "GI50", "setting": "[32]", "result": 1.97, "unit": "µM"}, {"measurement": "GI50", "setting": "[33]", "result": 0.511, "unit": "µM"}, {"measurement": "activity at 10 µM", "setting": "[34]", "result": -37.7, "unit": "%"}]}]}
